The test system of test [1] is Diplococcus pneumoniae. Briefly: in vivo protection of mice challenged with a fatal bacterial infection. Particulars: Streptococcus pneumoniae, 1 and 4 hours after challenge, read-out: dose required per treatment to protect fifty percent of the infected mice (ED50). The procedure: (§1) The following example illustrates the in vivo activity of the compounds of this invention.
(§2) Several groups of 10 mice are challenged with a fatal bacterial infection. Various dose levels of the test compound are administered orally or subcutaneously to separate groups of these animals 1 and 4 hours after challenge. After three or four days, depending upon the test organism, the number of survivors are recorded at each dose level and the dose required per treatment to protect fifty percent of the infected mice (ED50) is calculated by the method described by Reed and Muench, Amer. J. Hyg. 27, 493-497 (1938).

Test [2] has as its system Streptococcus pyogenes. The description is as above. Particulars: 1 and 4 hours after challenge, read-out: dose required per treatment to protect fifty percent of the infected mice (ED50). The procedure:
as §1, §2

The subject of test [3] is Salmonella schottmuelleri. The description is as above. Particulars: sc, subcutaneous, 1 and 4 hours after challenge, read-out: dose required per treatment to protect fifty percent of the infected mice (ED50). The procedure: as §1, §2
Test [4] deals with Diplococcus pneumoniae. Kind of test: in vitro minimal inhibitory concentration, two-fold serial dilutions in trypticase soy broth. Format: cell-based. Particulars: Streptococcus pneumoniae, 24 hours at 37° C. The procedure: (§3) The following example illustrates the in vitro activity of the compounds of this invention.
(§4) Two-fold serial dilutions of the test compound are made in trypticase soy broth. A series of tubes of both containing different concentrations of the test compound are inoculated with the particular bacterial culture used for in vitro activity. The inoculated tubes are examined for the inhibition of bacterial growth after 24 hours of incubation at 37° C. The following table summarizes the minimal inhibitory concentration (MIC) for the various bacterial cultures tested with the compound 7-[2-amino-2-(3,4-methylenedioxyphenyl)acetamido]desacetoxycephalosporanicacid.

Test [5] relates to Streptococcus pyogenes. The description is as above. Format: cell-based. Particulars: 24 hours at 37° C. The procedure: as §3, §4
For test [6], the system named is Salmonella schottmuelleri. Described as above. Format: cell-based. Particulars: 24 hours at 37° C. The procedure: as §3, §4
The subject of a further test is Escherichia coli. The description is as above. Format: cell-based. Conditions: 24 hours at 37° C. The procedure: as §3, §4
The next test concerns Staphylococcus aureus. The test is described as above. Particulars: 24 hours at 37° C. Format: cell-based. The procedure: as §3, §4

Each structure is given as a SMILES string. ≈ marks a conversion by molar mass, not a printed value. Read-outs that look alike come from different tables or passages of the source.

Regarding `CC1=C(C(=O)O)N2C(=O)C(NC(=O)C(N)c3ccc4c(c3)OCO4)C2SC1` (stereo not shown) [7-[2-Amino-2-(3,4-methylenedioxyphenyl)acetamido] desacetoxycephalosporanic acid], the ED50 with Diplococcus pneumoniae [1] (po, per os) turned out to be 45 mg/kg; in the test with Diplococcus pneumoniae [1] (sc, subcutaneous) it was 40 mg/kg; in the test with Streptococcus pyogenes [2] (po, per os), 1 mg/kg; in the test on Streptococcus pyogenes [2] (sc, subcutaneous), 0.9 mg/kg; in test [3] it was 26 mg/kg. For the same compound, the minimal inhibitory concentration (MIC) was found to be 3.1 µg/mL (≈ 7.92 µM) in the test with Diplococcus pneumoniae [4]; 0.8 µg/mL (≈ 2.04 µM) with Streptococcus pyogenes [5]; 50 µg/mL (≈ 128 µM) in test [6]; 50 µg/mL (≈ 128 µM) with Escherichia coli; 1.6 µg/mL (≈ 4.09 µM) in the test on Staphylococcus aureus.

The term ED50 denotes the midpoint of the dose-response relation. The term MIC denotes the smallest concentration in the dilution series that meets the test's criterion for growth inhibition. A low value points to a more susceptible organism.

The values are drawn from US4020060A, “7-[α-Amino- ω-(3,4-methylenedioxyphenyl)acylamido]cephalosporanic acid derivatives” (Richardson-Merrell Inc., priority 1975, dated 1977).
